Experimental data published in US20100137449A1, “SUBSTITUTED 1,3-CYCLOPENTADIONE MULTI-TARGET PROTEIN KINASE MODULATORS OF CANCER, ANGIOGENESIS AND THE INFLAMMATORY PATHWAYS ASSOCIATED THEREWITH” (METAPROTEOMICS, LLC, priority 2007, published 2010).

What was measured:
Experiment in all cases: KinaseProfiler Assay
Yes(h) = Yes(h) (Homo sapiens, UniProt P07947)
FGFR2(h) = FGFR2(h) (Homo sapiens, UniProt P21802)
Rsk3(h) = Rsk3(h) (Homo sapiens, UniProt Q15349)
P70S6K(h) = P70S6K(h) (Homo sapiens, UniProt P23443)
Haspin(h) = biological target: T1, Haspin(h) (Homo sapiens, UniProt Q8TF76)
T1 sequence (Q8TF76 1-798): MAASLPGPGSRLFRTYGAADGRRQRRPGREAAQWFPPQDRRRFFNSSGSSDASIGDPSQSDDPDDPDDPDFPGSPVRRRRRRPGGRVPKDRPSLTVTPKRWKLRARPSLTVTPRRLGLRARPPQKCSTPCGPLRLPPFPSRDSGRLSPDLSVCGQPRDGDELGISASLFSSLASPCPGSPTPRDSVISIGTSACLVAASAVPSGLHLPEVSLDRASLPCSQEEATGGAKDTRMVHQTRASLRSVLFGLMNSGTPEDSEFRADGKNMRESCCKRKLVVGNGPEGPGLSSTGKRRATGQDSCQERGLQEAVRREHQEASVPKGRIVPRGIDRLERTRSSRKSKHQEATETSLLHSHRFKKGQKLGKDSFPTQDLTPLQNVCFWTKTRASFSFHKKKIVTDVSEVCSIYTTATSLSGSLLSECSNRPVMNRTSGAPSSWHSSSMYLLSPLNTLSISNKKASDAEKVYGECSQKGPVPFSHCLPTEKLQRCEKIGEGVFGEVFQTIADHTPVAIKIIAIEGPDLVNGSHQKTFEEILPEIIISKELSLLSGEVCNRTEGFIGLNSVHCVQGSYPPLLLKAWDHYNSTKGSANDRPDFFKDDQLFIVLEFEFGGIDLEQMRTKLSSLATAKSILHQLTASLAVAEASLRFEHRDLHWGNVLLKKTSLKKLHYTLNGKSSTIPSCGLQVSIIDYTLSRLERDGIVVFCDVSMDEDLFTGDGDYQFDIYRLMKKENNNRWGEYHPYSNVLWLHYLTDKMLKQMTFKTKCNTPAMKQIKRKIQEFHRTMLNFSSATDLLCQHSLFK

CDK3/cyclinE(h) = CDK3/cyclinE(h) (Homo sapiens, UniProt Q00526)
PI 3-Kinaseβ(h) = PI 3-Kinaseβ(h) (Homo sapiens, UniProt P42338)
NEK3(h) = biological target: T2, NEK3(h) (Homo sapiens, UniProt P51956)
T2 sequence (P51956 1-506): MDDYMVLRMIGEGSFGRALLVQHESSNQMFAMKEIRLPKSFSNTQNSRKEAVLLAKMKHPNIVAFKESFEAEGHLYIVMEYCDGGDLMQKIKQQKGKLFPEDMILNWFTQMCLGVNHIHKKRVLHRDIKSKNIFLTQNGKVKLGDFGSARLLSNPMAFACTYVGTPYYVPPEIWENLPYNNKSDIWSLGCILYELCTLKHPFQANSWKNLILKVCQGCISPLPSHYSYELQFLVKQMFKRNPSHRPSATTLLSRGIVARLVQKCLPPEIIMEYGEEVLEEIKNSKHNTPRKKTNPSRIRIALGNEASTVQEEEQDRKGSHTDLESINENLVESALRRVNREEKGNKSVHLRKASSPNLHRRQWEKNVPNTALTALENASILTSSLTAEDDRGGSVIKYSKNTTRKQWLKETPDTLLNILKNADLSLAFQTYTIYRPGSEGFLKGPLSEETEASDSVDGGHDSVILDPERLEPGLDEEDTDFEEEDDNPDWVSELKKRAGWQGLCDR

Pim-3(h) = Pim-3(h) (Homo sapiens, UniProt Q86V86)

PI 3-Kinaseβ(h), sequence (P42338 whole entry): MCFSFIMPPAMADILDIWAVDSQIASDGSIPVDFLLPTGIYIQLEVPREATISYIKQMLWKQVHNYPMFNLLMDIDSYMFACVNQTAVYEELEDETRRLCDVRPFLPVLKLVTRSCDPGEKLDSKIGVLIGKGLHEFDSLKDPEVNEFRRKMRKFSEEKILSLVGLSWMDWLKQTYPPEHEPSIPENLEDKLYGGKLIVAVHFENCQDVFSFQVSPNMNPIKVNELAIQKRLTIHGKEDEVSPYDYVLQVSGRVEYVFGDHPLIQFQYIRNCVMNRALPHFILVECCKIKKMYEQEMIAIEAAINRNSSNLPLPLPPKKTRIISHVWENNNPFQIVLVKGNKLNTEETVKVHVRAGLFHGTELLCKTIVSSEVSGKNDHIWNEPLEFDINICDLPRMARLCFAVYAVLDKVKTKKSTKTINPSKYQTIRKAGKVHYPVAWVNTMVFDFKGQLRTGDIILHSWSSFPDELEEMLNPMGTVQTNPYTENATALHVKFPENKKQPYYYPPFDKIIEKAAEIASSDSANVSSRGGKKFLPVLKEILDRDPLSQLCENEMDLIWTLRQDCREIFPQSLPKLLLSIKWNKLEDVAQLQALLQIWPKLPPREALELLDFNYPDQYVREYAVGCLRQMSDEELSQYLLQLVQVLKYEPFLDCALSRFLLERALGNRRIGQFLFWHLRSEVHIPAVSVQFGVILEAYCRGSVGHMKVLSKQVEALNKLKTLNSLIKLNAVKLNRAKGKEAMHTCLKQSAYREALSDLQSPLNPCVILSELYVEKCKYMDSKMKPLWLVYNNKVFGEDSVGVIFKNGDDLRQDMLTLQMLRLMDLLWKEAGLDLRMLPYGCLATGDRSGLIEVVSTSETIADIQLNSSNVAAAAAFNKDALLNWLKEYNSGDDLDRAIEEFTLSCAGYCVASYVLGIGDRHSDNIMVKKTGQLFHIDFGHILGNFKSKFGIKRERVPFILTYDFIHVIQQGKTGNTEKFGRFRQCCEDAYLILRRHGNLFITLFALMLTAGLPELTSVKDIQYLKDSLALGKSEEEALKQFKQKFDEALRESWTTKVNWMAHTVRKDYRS
PI 3-Kinaseβ(h), sequence (P27986 whole entry partner): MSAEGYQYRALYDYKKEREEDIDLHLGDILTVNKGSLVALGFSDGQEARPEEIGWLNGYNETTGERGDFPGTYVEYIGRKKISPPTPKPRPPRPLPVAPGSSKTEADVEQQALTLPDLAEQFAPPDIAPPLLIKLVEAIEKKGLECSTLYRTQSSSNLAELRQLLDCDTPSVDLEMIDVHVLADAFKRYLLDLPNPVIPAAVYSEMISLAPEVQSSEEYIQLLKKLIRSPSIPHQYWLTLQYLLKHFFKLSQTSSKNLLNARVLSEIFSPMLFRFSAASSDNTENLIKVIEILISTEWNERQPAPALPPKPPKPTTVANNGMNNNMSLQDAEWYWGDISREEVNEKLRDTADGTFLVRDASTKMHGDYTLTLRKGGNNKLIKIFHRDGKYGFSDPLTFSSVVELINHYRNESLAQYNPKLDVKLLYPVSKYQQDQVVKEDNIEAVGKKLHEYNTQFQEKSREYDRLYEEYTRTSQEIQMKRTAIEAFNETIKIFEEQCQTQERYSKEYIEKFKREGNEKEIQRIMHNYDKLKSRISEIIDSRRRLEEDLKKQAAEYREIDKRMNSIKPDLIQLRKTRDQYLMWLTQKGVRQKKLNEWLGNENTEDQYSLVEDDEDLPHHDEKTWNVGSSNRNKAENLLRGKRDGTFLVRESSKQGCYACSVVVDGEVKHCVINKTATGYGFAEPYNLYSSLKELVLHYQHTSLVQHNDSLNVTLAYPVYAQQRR
CDK3/cyclinE(h), sequence (Q00526 whole entry): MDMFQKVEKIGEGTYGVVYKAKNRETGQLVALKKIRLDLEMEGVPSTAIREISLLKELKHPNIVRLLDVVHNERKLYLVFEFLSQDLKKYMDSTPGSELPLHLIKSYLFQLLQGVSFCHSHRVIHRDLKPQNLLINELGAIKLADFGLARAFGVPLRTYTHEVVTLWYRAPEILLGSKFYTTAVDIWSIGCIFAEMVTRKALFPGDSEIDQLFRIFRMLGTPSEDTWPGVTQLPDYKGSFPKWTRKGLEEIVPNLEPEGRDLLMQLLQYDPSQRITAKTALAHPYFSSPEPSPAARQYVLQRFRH
CDK3/cyclinE(h), sequence (P24864 whole entry partner): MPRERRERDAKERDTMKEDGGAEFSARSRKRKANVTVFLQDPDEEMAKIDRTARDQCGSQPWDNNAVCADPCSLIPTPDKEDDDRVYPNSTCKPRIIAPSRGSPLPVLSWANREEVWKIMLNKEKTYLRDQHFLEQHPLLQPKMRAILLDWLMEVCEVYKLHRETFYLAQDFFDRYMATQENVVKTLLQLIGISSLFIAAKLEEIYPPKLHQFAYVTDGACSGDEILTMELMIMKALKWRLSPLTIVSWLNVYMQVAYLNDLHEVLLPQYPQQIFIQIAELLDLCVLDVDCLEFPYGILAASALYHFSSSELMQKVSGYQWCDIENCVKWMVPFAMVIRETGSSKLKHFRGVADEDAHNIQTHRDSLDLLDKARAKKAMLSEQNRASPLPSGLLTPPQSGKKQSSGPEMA
FGFR2(h), sequence (P21802 22-821): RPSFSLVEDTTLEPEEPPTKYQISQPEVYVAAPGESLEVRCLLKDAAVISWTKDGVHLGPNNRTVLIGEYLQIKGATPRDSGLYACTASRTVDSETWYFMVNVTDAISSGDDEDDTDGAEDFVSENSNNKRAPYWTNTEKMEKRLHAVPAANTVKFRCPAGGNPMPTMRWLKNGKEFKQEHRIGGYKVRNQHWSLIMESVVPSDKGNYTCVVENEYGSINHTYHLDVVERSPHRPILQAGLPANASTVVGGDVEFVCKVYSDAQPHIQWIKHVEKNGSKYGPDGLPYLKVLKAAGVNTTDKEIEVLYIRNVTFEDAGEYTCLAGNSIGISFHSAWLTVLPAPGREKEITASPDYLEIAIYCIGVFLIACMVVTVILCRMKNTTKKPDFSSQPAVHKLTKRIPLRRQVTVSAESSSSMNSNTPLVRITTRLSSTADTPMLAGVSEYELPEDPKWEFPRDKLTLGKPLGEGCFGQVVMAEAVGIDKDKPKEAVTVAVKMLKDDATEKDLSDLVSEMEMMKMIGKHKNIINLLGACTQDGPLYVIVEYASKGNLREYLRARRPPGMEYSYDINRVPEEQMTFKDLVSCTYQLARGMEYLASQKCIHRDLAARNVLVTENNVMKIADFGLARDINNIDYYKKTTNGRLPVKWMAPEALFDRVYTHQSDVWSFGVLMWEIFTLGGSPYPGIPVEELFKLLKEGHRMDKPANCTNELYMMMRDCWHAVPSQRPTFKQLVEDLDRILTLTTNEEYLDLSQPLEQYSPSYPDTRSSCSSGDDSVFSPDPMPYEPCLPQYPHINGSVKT
Yes(h), sequence (P07947 whole entry): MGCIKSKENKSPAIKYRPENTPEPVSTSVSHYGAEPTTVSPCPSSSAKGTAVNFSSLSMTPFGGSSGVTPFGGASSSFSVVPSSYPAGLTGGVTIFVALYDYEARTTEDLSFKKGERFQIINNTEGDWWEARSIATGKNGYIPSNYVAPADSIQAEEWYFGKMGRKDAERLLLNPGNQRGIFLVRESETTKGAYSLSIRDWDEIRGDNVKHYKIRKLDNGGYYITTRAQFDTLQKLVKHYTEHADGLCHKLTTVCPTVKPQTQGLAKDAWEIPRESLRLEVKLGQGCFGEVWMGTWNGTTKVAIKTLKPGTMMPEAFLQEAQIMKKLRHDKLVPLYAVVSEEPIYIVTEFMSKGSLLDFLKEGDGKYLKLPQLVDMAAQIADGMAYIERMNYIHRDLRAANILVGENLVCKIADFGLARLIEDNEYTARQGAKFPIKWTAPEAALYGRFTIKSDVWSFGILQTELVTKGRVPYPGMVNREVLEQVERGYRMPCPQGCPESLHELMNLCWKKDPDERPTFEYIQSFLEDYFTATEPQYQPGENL
P70S6K(h), sequence (P23443 whole entry): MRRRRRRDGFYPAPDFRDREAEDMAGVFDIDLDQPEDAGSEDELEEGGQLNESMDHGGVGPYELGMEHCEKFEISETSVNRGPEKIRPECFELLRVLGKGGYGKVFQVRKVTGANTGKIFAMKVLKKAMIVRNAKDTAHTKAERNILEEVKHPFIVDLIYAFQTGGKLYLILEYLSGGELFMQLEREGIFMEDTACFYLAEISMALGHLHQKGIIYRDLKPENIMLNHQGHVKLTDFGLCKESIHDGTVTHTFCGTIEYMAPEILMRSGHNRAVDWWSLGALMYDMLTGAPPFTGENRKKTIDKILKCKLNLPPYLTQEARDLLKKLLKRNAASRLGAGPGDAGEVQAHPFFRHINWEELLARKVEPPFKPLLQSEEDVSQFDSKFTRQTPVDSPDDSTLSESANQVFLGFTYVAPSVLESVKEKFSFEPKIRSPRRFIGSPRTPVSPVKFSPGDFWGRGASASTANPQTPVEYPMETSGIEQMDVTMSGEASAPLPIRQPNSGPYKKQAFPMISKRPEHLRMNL

Q: What does the source list for `CC(C)CCC(=O)[C@]1(O)C(O)=C(C(=O)C(C)C)C(=O)[C@H]1CCC(C)C` [TH2, tetrahydroiso-cohumulone]?
A: kinase inhibition (Yes(h); 1 μg/ml): 92% of control; kinase inhibition (Yes(h); 5 μg/ml): 81% of control; kinase inhibition (Yes(h); 25 μg/ml): 116% of control; kinase inhibition (Yes(h); 50 μg/ml): 111% of control; kinase inhibition (Yes(h); 100 μg/ml): 104% of control; kinase inhibition (FGFR2(h); 1 μg/ml): 111% of control; kinase inhibition (FGFR2(h); 5 μg/ml): 98% of control; kinase inhibition (FGFR2(h); 25 μg/ml): 102% of control; kinase inhibition (FGFR2(h); 50 μg/ml): 96% of control; kinase inhibition (FGFR2(h); 100 μg/ml): 78% of control; kinase inhibition (Rsk3(h); 1 μg/ml): 112% of control; kinase inhibition (Rsk3(h); 5 μg/ml): 106% of control; kinase inhibition (Rsk3(h); 25 μg/ml): 97% of control; kinase inhibition (Rsk3(h); 50 μg/ml): 88% of control; kinase inhibition (Rsk3(h); 100 μg/ml): 85% of control; kinase inhibition (P70S6K(h); 1 μg/ml): 108% of control; kinase inhibition (P70S6K(h); 5 μg/ml): 108% of control; kinase inhibition (P70S6K(h); 25 μg/ml): 108% of control; kinase inhibition (P70S6K(h); 50 μg/ml): 92% of control; kinase inhibition (P70S6K(h); 100 μg/ml): 69% of control; kinase inhibition (Haspin(h); 1 μg/ml): 105% of control; kinase inhibition (Haspin(h); 5 μg/ml): 95% of control; kinase inhibition (Haspin(h); 25 μg/ml): 90% of control; kinase inhibition (Haspin(h); 50 μg/ml): 76% of control; kinase inhibition (Haspin(h); 100 μg/ml): 49% of control; kinase inhibition (CDK3/cyclinE(h); 1 μg/ml): 102% of control; kinase inhibition (CDK3/cyclinE(h); 5 μg/ml): 104% of control; kinase inhibition (CDK3/cyclinE(h); 25 μg/ml): 120% of control; kinase inhibition (CDK3/cyclinE(h); 50 μg/ml): 103% of control; kinase inhibition (CDK3/cyclinE(h); 100 μg/ml): 84% of control; kinase inhibition (PI 3-Kinaseβ(h); 1 μg/ml): 99% of control; kinase inhibition (PI 3-Kinaseβ(h); 5 μg/ml): 95% of control; kinase inhibition (PI 3-Kinaseβ(h); 25 μg/ml): 75% of control; kinase inhibition (PI 3-Kinaseβ(h); 50 μg/ml): 47% of control; kinase inhibition (PI 3-Kinaseβ(h); 100 μg/ml): 28% of control; kinase inhibition (NEK3(h); 1 μg/ml): 99% of control; kinase inhibition (NEK3(h); 5 μg/ml): 102% of control; kinase inhibition (NEK3(h); 25 μg/ml): 97% of control; kinase inhibition (NEK3(h); 50 μg/ml): 94% of control; kinase inhibition (NEK3(h); 100 μg/ml): 92% of control; kinase inhibition (Pim-3(h); 1 μg/ml): 104% of control; kinase inhibition (Pim-3(h); 5 μg/ml): 104% of control; kinase inhibition (Pim-3(h); 25 μg/ml): 72% of control; kinase inhibition (Pim-3(h); 50 μg/ml): 70% of control; kinase inhibition (Pim-3(h); 100 μg/ml): 64% of control
